Tested on: 454973-116-R2-J3-PDC complex spheroid viability
Assay: Anticancer human tumor 454973-116-R2-J3-PDC patient-derived pancreatic carcinoma cell line growth inhibition [POLQ]
Settings: for IC50: curve of first compound; for viability, T/C: stronger effect = lower value
Method in brief: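 Growth inhibition in 3D: complex spheroids (tumor PDC, HUVEC, MSC) treated with POLQ inhibitor combinations; where Cmax unknown, highest tested concentration 10 microM, except SN-38 at 1 microM.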

[1] = second compound 0.0316 µM, first compound 0.0316 µM
[2] = second compound 0.0316 µM, first compound 0.1 µM
[3] = second compound 0.0316 µM, first compound 0.316 µM
[4] = second compound 0.0316 µM, first compound 1 µM
[5] = second compound 0.0316 µM, first compound 3.16 µM
[6] = second compound 0.0316 µM, first compound 10 µM
[7] = second compound 0.1 µM, first compound 0.0316 µM
[8] = second compound 0.1 µM, first compound 0.1 µM
[9] = second compound 0.1 µM, first compound 0.316 µM
[10] = second compound 0.1 µM, first compound 1 µM
[11] = second compound 0.1 µM, first compound 3.16 µM
[12] = second compound 0.1 µM, first compound 10 µM
[13] = second compound 0.316 µM, first compound 0.0316 µM
[14] = second compound 0.316 µM, first compound 0.1 µM
[15] = second compound 0.316 µM, first compound 0.316 µM
[16] = second compound 0.316 µM, first compound 1 µM
[17] = second compound 0.316 µM, first compound 3.16 µM
[18] = second compound 0.316 µM, first compound 10 µM
[19] = second compound 1 µM, first compound 0.0316 µM
[20] = second compound 1 µM, first compound 0.1 µM
[21] = second compound 1 µM, first compound 0.316 µM
[22] = second compound 1 µM, first compound 1 µM
[23] = second compound 1 µM, first compound 3.16 µM
[24] = second compound 1 µM, first compound 10 µM
[25] = second compound 3.16 µM, first compound 0.0316 µM
[26] = second compound 3.16 µM, first compound 0.1 µM
[27] = second compound 3.16 µM, first compound 0.316 µM
[28] = second compound 3.16 µM, first compound 1 µM
[29] = second compound 3.16 µM, first compound 3.16 µM
[30] = second compound 3.16 µM, first compound 10 µM
[31] = second compound 10 µM, first compound 0.0316 µM
[32] = second compound 10 µM, first compound 0.1 µM
[33] = second compound 10 µM, first compound 0.316 µM
[34] = second compound 10 µM, first compound 1 µM
[35] = second compound 10 µM, first compound 3.16 µM
[36] = second compound 10 µM, first compound 10 µM
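Note: spheroids exposed to drugs for seven days before measurement.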
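Throughout, for viability, T/C: percent viability relative to DMSO vehicle control wells taken as 100%.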

`C#Cc1c(F)ccc2cc(O)cc(-c3ncc4c(N5CC6CCC(C5)N6)nc(OCC56CCCN5CC(F)C6)nc4c3F)c12` (stereo unspecified) + Nc1ccc(C#CCN(C(=O)Cc2ncc(C(F)(F)F)cc2C(F)(F)F)c2ccc(F)cc2)nn1 was tested, and the IC50 (second compound 0.0316 µM) was less than 31.6 nM, the IC50 (second compound 0.1 µM) was less than 31.6 nM and the IC50 (second compound 0.316 µM) was less than 31.6 nM. For the same molecule, the IC50 (second compound 1 µM) was less than 31.6 nM, the IC50 (second compound 3.16 µM) was less than 31.6 nM and the IC50 (second compound 10 µM) was less than 31.6 nM. For the same molecule, the viability, T/C [1] was 47.5%, the viability, T/C [2] was 36.1% and the viability, T/C [3] was 28.4%. For the same molecule, the viability, T/C [4] was 24.1%, the viability, T/C [5] was 19% and the viability, T/C [6] was 18.1%. It also gave a viability, T/C [7] of 46.1%, a viability, T/C [8] of 36% and a viability, T/C [9] of 26%. It also gave a viability, T/C [10] of 24%, a viability, T/C [11] of 22.2% and a viability, T/C [12] of 18%. The viability, T/C [13] was 49.8%, the viability, T/C [14] was 35.8% and the viability, T/C [15] was 28.9%. It also gave a viability, T/C [16] of 25.5%, a viability, T/C [17] of 22.1% and a viability, T/C [18] of 19.6%. It also gave a viability, T/C [19] of 46.2%, a viability, T/C [20] of 35.1% and a viability, T/C [21] of 29.3%. The viability, T/C [22] was 25.4%, the viability, T/C [23] was 22.7% and the viability, T/C [24] was 18.8%. The viability, T/C [25] was 43.8%, the viability, T/C [26] was 35.4% and the viability, T/C [27] was 25.6%. The viability, T/C [28] was 25.2%, the viability, T/C [29] was 21.9% and the viability, T/C [30] was 18.5%. It also gave a viability, T/C [31] of 44.6%, a viability, T/C [32] of 39.3% and a viability, T/C [33] of 32.8%. It also gave a viability, T/C [34] of 28%, a viability, T/C [35] of 23.4% and a viability, T/C [36] of 23.5%.
Work on `COc1cccc2c1C(=O)c1c(O)c3c(c(O)c1C2=O)CC(O)(C(=O)CO)CC3OC1CC(N)C(O)C(C)O1` (stereo unspecified) + Cc1cccc(N(C)C(=O)C2C(O)CCN2c2nc(C)cc(C(F)(F)F)c2C#N)c1 yielded an IC50 (second compound 0.0316 µM) of 59.7 nM, an IC50 (second compound 0.1 µM) of 62.8 nM and an IC50 (second compound 0.316 µM) of 61.5 nM. It also gave an IC50 (second compound 1 µM) of 59.8 nM, an IC50 (second compound 3.16 µM) of 48.6 nM and an IC50 (second compound 10 µM) of 54.6 nM. The viability, T/C [1] was 72.9%, the viability, T/C [2] was 25.9% and the viability, T/C [3] was 22.1%. The viability, T/C [4] was 10.9%, the viability, T/C [5] was 0.31% and the viability, T/C [6] was 0.23%. For the same molecule, the viability, T/C [7] was 71.8%, the viability, T/C [8] was 29.3% and the viability, T/C [9] was 26.9%. The viability, T/C [10] was 8.87%, the viability, T/C [11] was 1.7% and the viability, T/C [12] was 0.22%. It also gave a viability, T/C [13] of 70.3%, a viability, T/C [14] of 30.2% and a viability, T/C [15] of 24.2%. For the same molecule, the viability, T/C [16] was 9.69%, the viability, T/C [17] was 0.35% and the viability, T/C [18] was 0.28%. For the same molecule, the viability, T/C [19] was 67.8%, the viability, T/C [20] was 30.9% and the viability, T/C [21] was 26.6%. For the same molecule, the viability, T/C [22] was 9.52%, the viability, T/C [23] was 0.41% and the viability, T/C [24] was 0.32%. For the same molecule, the viability, T/C [25] was 56.3%, the viability, T/C [26] was 38.4% and the viability, T/C [27] was 25.6%. The viability, T/C [28] was 6.92%, the viability, T/C [29] was 0.38% and the viability, T/C [30] was 0.33%. For the same molecule, the viability, T/C [31] was 63.8%, the viability, T/C [32] was 33% and the viability, T/C [33] was 22%. The viability, T/C [34] was 7.02%, the viability, T/C [35] was 0.38% and the viability, T/C [36] was 0.49%.
For `CCCS(=O)(=O)Nc1ccc(F)c(C(=O)c2c[nH]c3ncc(-c4ccc(Cl)cc4)cc23)c1F` + Nc1ccc(C#CCN(C(=O)Cc2ncc(C(F)(F)F)cc2C(F)(F)F)c2ccc(F)cc2)nn1, the IC50 (second compound 0.0316 µM) was 8620 nM, the IC50 (second compound 0.1 µM) was 8220 nM and the IC50 (second compound 0.316 µM) was 8450 nM. It also gave an IC50 (second compound 1 µM) of 8620 nM, an IC50 (second compound 3.16 µM) of 8460 nM and an IC50 (second compound 10 µM) of 7560 nM. It also gave a viability, T/C [1] of 106%, a viability, T/C [2] of 109% and a viability, T/C [3] of 117%. For the same molecule, the viability, T/C [4] was 114%, the viability, T/C [5] was 114% and the viability, T/C [6] was 40.7%. For the same molecule, the viability, T/C [7] was 104%, the viability, T/C [8] was 109% and the viability, T/C [9] was 108%. For the same molecule, the viability, T/C [10] was 115%, the viability, T/C [11] was 113% and the viability, T/C [12] was 37.6%. It also gave a viability, T/C [13] of 106%, a viability, T/C [14] of 109% and a viability, T/C [15] of 110%. For the same molecule, the viability, T/C [16] was 114%, the viability, T/C [17] was 120% and the viability, T/C [18] was 39.5%. For the same molecule, the viability, T/C [19] was 112%, the viability, T/C [20] was 116% and the viability, T/C [21] was 116%. For the same molecule, the viability, T/C [22] was 117%, the viability, T/C [23] was 114% and the viability, T/C [24] was 40.4%. For the same molecule, the viability, T/C [25] was 116%, the viability, T/C [26] was 118% and the viability, T/C [27] was 112%. It also gave a viability, T/C [28] of 115%, a viability, T/C [29] of 113% and a viability, T/C [30] of 39.3%. It also gave a viability, T/C [31] of 133%, a viability, T/C [32] of 116% and a viability, T/C [33] of 117%. For the same molecule, the viability, T/C [34] was 116%, the viability, T/C [35] was 116% and the viability, T/C [36] was 28.9%.
